Consider 2 compounds from US20060074046A1, “Oral administration of decitabine salt” (priority 2004, published 2006).

What is called solubility is the concentration that dissolves in the medium under given conditions.

Structures are written as SMILES. Converted amounts (≈) assume the structure as drawn. Where a name gives a salt, the structure may show the parent alone. Read-outs that look alike come from different tables or passages of the source.

The conditions of series [1]: 1 min.
The conditions of series [2]: 0.05 M phosphate buffer; for Potency Found (%) At pH 2.5 / Potency Found (%) At pH 7.0: 0.5 mg/mL, ambient.
Series [3] is described as follows: Hygroscopicity, weight gain in 1 week at relative humidity. Format: physicochemical. The settings on record: solid state.
A short description of series [4]: physchem. The conditions noted are these: water, thermodynamic from solid, Total Solubility.

Take `Nc1ncn([C@@H]2O[C@H](CO)[C@@H](O)[C@H]2O)c(=O)n1` [Compound 2, 5-azacytidine, reference compound]: the “Total Solubility” value in series [1] was 14 mg/mL. Further, the “Potency Found (%) At pH 2.5” value in series [2] (t = 0.5 hr) turned out to be 73.62%. Moreover, the “Potency Found (%) At pH 7.0” value in series [2] (t = 0.5 hr) was found to be 86.74%; in series [2] (t = 24 hr), 79.43%. The “Hygroscopicity-% weight gain in 1 week” value in series [3] (56% RH) was 1.74%; in series [3] (98% RH) it was 5.61%. In series [4], this compound had a solubility at 1 min of 14 mg/mL (≈ 57.3 mM).

With `Nc1ncn([C@@H]2O[C@H](CO)C(O)C2O)c(=O)n1` (some centres unmarked) [Compound 19, azacitidine mesylate], the “Total Solubility” value in series [1] worked out at 205 mg/mL. Further, in series [2] (pH 7.0 and 2.5), the “solution stability compared with the free base” value was “slightly less than the free azacitidine base”. Moreover, the results for the “Potency Found (%) At pH 2.5” value in series [2] (t = 0.5 hr) and in series [2] (t = 24 hr) were 64.56% and 49.94%, respectively. In addition, the entries for the “Potency Found (%) At pH 7.0” value in series [2] (t = 0.5 hr) and in series [2] (t = 24 hr) were 77.47% and 65.79%, respectively. Also, the “Hygroscopicity-% weight gain in 1 week” value came to 6.05% in series [3] (56% RH) and 38.11% in series [3] (98% RH). The solubility at 1 min was found to be 205 mg/mL in series [4] and 137 mg/mL in series [4] (decitabine or azacitidine free base equivalents).
